Legend:
[1] = Cytotoxicity against CHO-K1 cells incubated for 24 hrs by MTT assay; type: toxicity, cell-based, Cricetulus griseus; settings: Chinese hamster
[2] = target: T1, Glutamate NMDA receptor; GRIN1/GRIN2B (Homo sapiens, UniProt Q05586+Q13224); assay: Inhibition of recombinant human GluN1/GluN2B receptor expressed in HEK293 cells assessed as reduction in glutamate induced current at 1 uM at -60 mV holding potential by electrophysiology assay relative to control; type: cell-based
[3] = target: T1, Glutamate NMDA receptor; GRIN1/GRIN2B; assay: Inhibition of recombinant human GluN1/GluN2B receptor expressed in HEK293 cells assessed as reduction in glutamate induced current at -20 mV holding potential by electrophysiology assay; type: cell-based

## Nc1c2c(nc3ccc(Oc4ccccc4)cc13)CCCC2
[1]
  IC50 at 24 h: 31 µM
[2]
  inhibition: 33.1%
[3]
  IC50: ~2 µM

Source: ChEMBL document CHEMBL5543075, “Phenoxytacrine derivatives: Low-toxicity neuroprotectants exerting affinity to ifenprodil-binding site and cholinesterase inhibition” (Eur J Med Chem, 2024)
